Data: ChEMBL document CHEMBL6092216, “Development of α-Helical Antimicrobial Peptides with Imperfect Amphipathicity for Superior Activity and Selectivity” (J Med Chem, 2024)
Calls of active or inactive are those of the source. No cut-off for these calls is given here. Where a SMILES comes first, the peptide text is derived from it. [ ]: non-standard residue; d: D form. Hmpa(2S,3S) = CC[C@H](C)[C@H](O)C(=O)O

How the values were obtained:
Acinetobacter baumannii = assay: Antibacterial activity against Acinetobacter baumannii ATCC 19606 assessed as inhibition of bacterial growth by tube microdilution assay; format: functional
Staphylococcus aureus [1] = assay: Antibacterial activity against Staphylococcus aureus ATCC 6538 assessed as inhibition of bacterial growth by tube microdilution assay; format: functional
HaCaT = assay: Cytotoxicity against human HaCaT cells assessed as effect on cell viability at 3.13 to 400 ug/ml incubated for 24 hrs by CCK-8 assay; format: toxicity, cell-based; details: dose 3.13-400 µg/ml
HEK-293T = assay: Cytotoxicity against HEK293T cells assessed as effect on cell viability at 3.13 to 400 ug/ml incubated for 24 hrs by CCK-8 assay; format: toxicity, cell-based; details: human, dose 3.13-400 µg/ml
Erythrocyte = assay: Induction of hemolysis in mouse red blood cells at 1.56 to 100 ug/ml incubated for 1 hr; format: toxicity, cell-based; details: dose 1.56-100 µg/ml
Cell membrane = assay: Induction of membrane permeabilization in Staphylococcus aureus ATCC 6538 assessed as increase in fluorescence intensity at 5XMIC measured for 90 mins by propidium iodide staining based fluorescence analysis; format: subcellular
Staphylococcus aureus [2] = assay: Ratio of MIC for bactericidal activity against Staphylococcus aureus ATCC 6538 measured after 35 passages to MIC for bactericidal activity against Staphylococcus aureus ATCC 6538 measured after short period of drug exposure; format: functional
Staphylococcus aureus [3] = assay: Antibacterial activity against Staphylococcus aureus ATCC 6538 infected in BALB/c mouse assessed as inhibition of bacterial colonization on wounded skin at 0.5 mg/ml applied on skin and measured after 2 hrs; format: functional, organism-based
Staphylococcus aureus [4] = assay: Induction of bacterial cell rupture in Staphylococcus aureus ATCC 6538 assessed as cell disruption at 5XMIC measured after 30 mins by transmission electron microscopy; format: functional, organism-based
Staphylococcus aureus [5] = assay: Bactericidal activity against Staphylococcus aureus ATCC 6538 assessed as elimination of bacterial cells at 5X to 10X MIC by killing kinetic assay; format: functional, organism-based
Staphylococcus aureus [6] = assay: Induction of bacterial cell rupture in Staphylococcus aureus ATCC 6538 assessed as cell disruption at 5XMIC measured after 30 mins by scanning electron microscopy; format: functional, organism-based

CC[C@H](C)[C@H](NC(=O)CN)C(=O)N[C@@H](CCCCN)C(=O)N[C@@H](CCCCN)C(=O)NCC(=O)O[C@H](C(=O)N[C@@H](CCCCN)C(=O)N[C@@H](CCCCN)C(=O)N[C@@H](CC(C)C)C(=O)N[C@@H](CC(C)C)C(=O)O)[C@@H](C)CC (H-GIKKG[Hmpa(2S,3S)]KKLL-OH)
MIC (Acinetobacter baumannii): > 200 µg/mL
MIC (Staphylococcus aureus [1]): > 200 µg/mL

CC[C@H](C)[C@H](N)C(=O)N[C@@H](CCCCN)C(=O)N[C@@H](CCCCN)C(=O)NCC(=O)O[C@H](C(=O)N[C@@H](CCCCN)C(=O)N[C@@H](CCCCN)C(=O)N[C@@H](CC(C)C)C(=O)N[C@@H](CC(C)C)C(=O)O)[C@@H](C)CC (H-IKKG[Hmpa(2S,3S)]KKLL-OH)
Activity (HaCaT): Non-toxic
Activity (HEK-293T): Non-toxic
Activity (Erythrocyte): Non-toxic
MIC (Acinetobacter baumannii): > 200 µg/mL
MIC (Staphylococcus aureus [1]): > 200 µg/mL

CN[C@H](CC(C)C)C(=O)N[C@H]1C(=O)N[C@@H](CC(N)=O)C(=O)N[C@H]2C(=O)N[C@H]3C(=O)N[C@H](C(=O)N[C@H](C(=O)O)c4cc(O)cc(O)c4-c4cc3ccc4O)[C@H](O)c3ccc(c(Cl)c3)Oc3cc2cc(c3O[C@@H]2O[C@H](CO)[C@@H](O)[C@H](O)[C@H]2O[C@H]2C[C@](C)(N)[C@H](O)[C@H](C)O2)Oc2ccc(cc2Cl)[C@H]1O [VANCOMYCIN]
Activity (Cell membrane): inactive
Ratio (Staphylococcus aureus [2]): 4
Activity (Staphylococcus aureus [3]): Active
Activity (Staphylococcus aureus [4]): Active; Limited Cell Disruption With Most Cells Remain Intact And Unaffected
Activity (Staphylococcus aureus [5]): Active; Slow Killing Rate
Activity (Staphylococcus aureus [6]): Active; Limited Cell Disruption With Most Cells Remain Intact And Unaffected

H-FIKKVKKVKKAIKEGIKK-OH
MIC (Acinetobacter baumannii): 37.5 µg/mL
MIC (Staphylococcus aureus [1]): 75 µg/mL

H-GIKKFIKKVKKVKKAIKE-OH
MIC (Acinetobacter baumannii): 37.5 µg/mL
MIC (Staphylococcus aureus [1]): 75 µg/mL

H-IKKFIKKVKKVKKAIK-OH
Activity (HaCaT): Non-toxic
Activity (HEK-293T): Non-toxic
Activity (Erythrocyte): Non-toxic
MIC (Acinetobacter baumannii): 4.68 µg/mL
MIC (Staphylococcus aureus [1]): 4.68 µg/mL

H-IKKFIKKVKKVKKAIKEG-OH
Activity (HaCaT): Non-toxic
Activity (HEK-293T): Non-toxic
Activity (Erythrocyte): Non-toxic
MIC (Acinetobacter baumannii): 37.5 µg/mL
MIC (Staphylococcus aureus [1]): 75 µg/mL

H-IKKVKKVKKAIKEGIKKG-OH
MIC (Acinetobacter baumannii): 75 µg/mL
MIC (Staphylococcus aureus [1]): 75 µg/mL

H-KFIKKVKKVKKAIKEGIK-OH
MIC (Acinetobacter baumannii): 37.5 µg/mL
MIC (Staphylococcus aureus [1]): 75 µg/mL

H-KKFIKKVKKVKKAIKEGI-OH
MIC (Acinetobacter baumannii): 37.5 µg/mL
MIC (Staphylococcus aureus [1]): 75 µg/mL

H-RGIKKFIKKVKKVKKAIK-OH
MIC (Acinetobacter baumannii): 2.34 µg/mL
MIC (Staphylococcus aureus [1]): 2.34 µg/mL

H-RRGIKKFIKKVKKVKKAIKEGIKKGIKKLL-OH
MIC (Acinetobacter baumannii): 9.37 µg/mL
MIC (Staphylococcus aureus [1]): 9.37 µg/mL

H-SGGGSNIAHGPGGRRHIA-OH
MIC (Acinetobacter baumannii): > 200 µg/mL
MIC (Staphylococcus aureus [1]): > 200 µg/mL
